Assay results taken from patent publication US5753631A, “Intercellular adhesion mediators” (Cytel Corporation, priority 1995, dated 1998).

Legend:
[1] = system: selectin receptors; settings: Berg et al.; cited from earlier work
[2] = molecular target: T1, P-Selectin (Homo sapiens, UniProt P16109); test: Glycolipid liposome inhibition of HL-60 cell adhesion to activated platelets; assay type: cell-based; settings: liposomes, FIG. 7
T1 construct: endogenous in cells
T1 sequence (P16109 42-830): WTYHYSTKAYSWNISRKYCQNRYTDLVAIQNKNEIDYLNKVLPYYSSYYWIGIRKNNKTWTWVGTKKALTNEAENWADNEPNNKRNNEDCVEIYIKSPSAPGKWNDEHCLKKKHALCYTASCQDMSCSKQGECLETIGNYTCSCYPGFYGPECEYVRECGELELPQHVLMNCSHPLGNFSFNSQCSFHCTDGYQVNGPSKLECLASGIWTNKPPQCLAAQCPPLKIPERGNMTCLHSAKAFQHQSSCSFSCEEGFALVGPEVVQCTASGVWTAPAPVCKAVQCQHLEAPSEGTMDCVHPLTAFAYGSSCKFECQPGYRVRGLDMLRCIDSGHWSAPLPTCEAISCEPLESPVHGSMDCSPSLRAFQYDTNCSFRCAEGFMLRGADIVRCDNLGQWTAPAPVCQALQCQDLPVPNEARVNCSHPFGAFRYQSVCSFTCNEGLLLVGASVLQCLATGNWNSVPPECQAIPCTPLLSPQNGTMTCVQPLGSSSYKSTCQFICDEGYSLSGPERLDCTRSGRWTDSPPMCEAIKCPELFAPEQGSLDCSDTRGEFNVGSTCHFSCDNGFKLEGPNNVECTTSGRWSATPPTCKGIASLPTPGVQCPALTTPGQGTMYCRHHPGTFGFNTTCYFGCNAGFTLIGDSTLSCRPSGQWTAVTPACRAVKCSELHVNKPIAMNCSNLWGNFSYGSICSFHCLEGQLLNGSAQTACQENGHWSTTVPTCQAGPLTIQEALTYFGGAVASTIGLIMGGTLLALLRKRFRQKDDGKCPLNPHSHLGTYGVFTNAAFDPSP
Protocol: The assays generally followed the protocol described in Larsen et al., Cell 63: 467-474 (1990), which is incorporated herein by reference.
Glycosphingolipids and liposomes were prepared as described in Example IV. The platelets were prepared as described in Example V, except that blocking of Fc receptors was not performed. HL60 cells were prepared as described above.
1. 20 μl of activated platelet preparation was placed in each of 28 1.5 ml microfuge tubes (14 duplicate samples).
2. 20 μl of the diluted liposomes at […], 5 μg or 2 μg, or 20 μl of the control buffers, were added to the appropriate tube of each duplicate.
3. The platelets were incubated with the liposome preparations for 20 min. at room temp.
4. Neutrophils or HL-60 cells at 2×10^6 cells/ml were each added to one set of liposome-treated platelets. 20 μl of cell suspension were added to each tube.
5. The tubes were mixed and allowed to stand at room temperature for 20 min. Then they were applied to a hemacytometer and the cells were scored as positive (2 or more platelets attached/cell) or negative (less than 2 platelets attached/cell).

[3] = molecular target: T2, E-Selectin (Homo sapiens, UniProt P16581); test: Glycolipid liposome inhibition of HL-60 cell adhesion to IL-1β activated endothelial cells; assay type: cell-based; settings: liposomes; for inhibition of adhesion of HL-60 cells to activated endothelial cells: 4° C. (FIG. 5); for reduction of HL-60 cell adhesion to activated endothelial cells: 37° C.
T2 construct: adhesion of HL-60 cells
T2 sequence (P16581 22-610): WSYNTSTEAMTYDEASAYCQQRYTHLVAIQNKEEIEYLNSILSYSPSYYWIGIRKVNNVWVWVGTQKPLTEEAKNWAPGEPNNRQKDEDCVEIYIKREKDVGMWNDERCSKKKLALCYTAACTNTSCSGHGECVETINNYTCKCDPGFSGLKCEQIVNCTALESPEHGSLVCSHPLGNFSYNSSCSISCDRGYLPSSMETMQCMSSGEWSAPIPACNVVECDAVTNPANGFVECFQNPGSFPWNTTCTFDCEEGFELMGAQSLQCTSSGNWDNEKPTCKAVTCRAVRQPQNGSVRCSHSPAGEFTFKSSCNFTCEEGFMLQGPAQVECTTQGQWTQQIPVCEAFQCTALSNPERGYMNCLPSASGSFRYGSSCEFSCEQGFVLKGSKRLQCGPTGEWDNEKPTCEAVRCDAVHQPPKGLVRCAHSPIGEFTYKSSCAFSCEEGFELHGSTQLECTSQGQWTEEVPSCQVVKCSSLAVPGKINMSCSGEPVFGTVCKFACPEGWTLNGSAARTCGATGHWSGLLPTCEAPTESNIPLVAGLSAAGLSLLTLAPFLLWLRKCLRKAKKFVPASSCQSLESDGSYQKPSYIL
From the text: This Example describes the preparation of liposomes which contain various biosynthetically produced glycosphingolipids on which the terminal carbohydrate units are either SLe^x, Le^x, or similar but not identical compounds. The ability of the liposomes which contain SLe^x or SLe^x mimetics to block the binding of SLe^x -expressing HL-60 cells and LEC11 cells to endothelial cells that have been stimulated to express E-Selectin by treatment with IL-1β is shown.
Materials: The glycosphingolipids used in this experiment are shown in Table I; they were obtained from the Biomembrane Institute, Seattle, Wash., and were either purified or biosynthetically produced and characterized by NMR and mass spectrometry, as generally described in Hakomori, S. I., et al., J. Biol. Chem., 259:4672 (1984), and Fukushi Y., et al., J. Biol. Chem. 259:10511 (1984), incorporated by reference herein. […] Nonsialylated diLex was similarly synthesized using nLc6 as substrate and the cell line NCI H-69. See Holmes et al., J. Biol. Chem. 260:7619 (1985), incorporated by reference herein. SPG and SH were purified from bovine red blood cells, and nLc6 was produced by chemical removal of the terminal sialosyl residue from SH.
Liposomes containing the glycosphingolipids were formed as follows: 100 μg of glycolipid was added to 300 μg phosphatidylcholine (Sigma, egg yolk) and 500 μg cholesterol (Sigma) in chloroform-methanol (2:1) and the whole solution evaporated to dryness by N2 in 15 ml screwcap tubes.
Passage 3 HUVEC, which had been grown to confluence on a gelatin coated 48 well assay plate (Costar) were used as the source of endothelial cells. The plates were prepared as previously described. Two sets of triplicate wells were left unstimulated as controls. Fourteen sets of triplicates were stimulated with IL-1β at 30 μg/ml in a 0.5 ml volume of EGM-UV. Cells were stimulated for exactly 4 hrs. HL-60 cells and LEC11 cells were cultured as described above.
1. One 48 well Costar cluster dish containing HUVEC grown to confluence on gelatin was removed from the incubator and the medium in each well was removed with a pasteur pipette and replaced either with 0.5 ml fresh EGM-UV medium or with the same medium containing 30 μg/ml IL-1β,and the plate then returned to the incubator for 4 hrs.
2. HL-60 cells and LEC11 cells were harvested and washed in CRPMI. A viable cell count was made using trypan blue. 6×10^6 cells of each cell type were radiolabeled as follows: 3×10^6 cells of each type were placed in each of two 10 ml test tubes and 300 μl of ^51 Cr (450 μCi) (New England Nuclear) was added to each tube. The tubes were allowed to incubate 1 hr. at 37° C. with gentle agitation.
3. Radiolabeled HL-60 and LEC11 cells were washed 3× in CRPMI and pooled into one tube. […]

[4] = molecular target: T3, ELAM-1 (Homo sapiens, UniProt P16581); test: Liposome inhibition of neutrophil (PMN) adhesion to IL-1 activated endothelium (HUVEC); assay type: cell-based; settings: for inhibition of neutrophil adhesion to activated endothelium: E-Selectin dependent binding assay, liposomes
T3 construct: adhesion of neutrophils (PMN)
T3 sequence (P16581 22-610): T2 sequence (P16581 22-610)
Protocol: Two synthetic compounds were prepared. One comprised sialic acid in an α2,3 linkage, as in naturally occurring SLe^x. The second comprised sialic acid in an α2,6 linkage, to examine the importance of the nature of the linkage to receptor binding.
Liposomes were prepared by adding 12 μl of absolute ethanol (ETOH) to each tube, warming briefly in a 50° C. water bath and sonicating for 2 min. 238 μl of warm phosphate buffered saline (PBS) was added slowly to each tube while sonicating and sonication was continued for a further 10 min. The final concentration of stock liposomes was 400 μg glycolipids/ml in 5% ETOH/PBS.
1. HUVECs, PMNs, and liposomes were prepared as described above.
2. The stimulated HUVEC assay plate was removed from the incubator and the wells were washed two times with RPMI 1640 containing 5 mg/ml bovine serum albumin (BSA).
3. Liposomes stocks were diluted in the HBSS/BSA buffer to make solutions equal to: 40 μg/ml, 30 μg/ml, 15 μg/ml, 7.5 μg/ml, 3.75 μg/ml and 1.87 μg/ml. Similar dilutions were prepared from a control stock consisting of PBS-5% ETOH.
4. The medium was removed from the wells of the assay plate with a pasteur pipette, a few wells at a time.
5. 0.05 ml of each liposome suspension was added to duplicate wells on the stimulated assay plate. Control wells received the liposome buffer containing ethanol HBSS and BSA at the same concentrations as in the liposome containing wells. Control buffer was plated on unstimulated and stimulated HUVEC. Liposome containing samples were added to stimulated wells only.
6. The plates were incubated for 40 min at 37° C. and then 50 μl of PMNs were added to the assay wells. The final concentration of cells was 5×10^5 well in 100 μl.
7. The assay plate was returned to the incubator (5% CO2, 37° C.) for 8 min.
8. Unbound cells were removed from the wells of the assay plates by systematic resuspension using a P200 multichannel pipette followed by addition and removal of 0.2 ml of medium.
9. All of the medium was removed from the wells and 50 μl of solubilization buffer was added. This consisted of citrate buffer (24.3 ml of 0.1M Citric acid, 10.5 g/500 ml+25.7 ml of 0.2M dibasic sodium phosphate, 14.2 g/500 ml and SQ H2 O to 100 ml) containing 0.1% NP-40 detergent.
10. The plate was incubated on a rotary shaker for 10 min and then 0.05 ml of OPDA solution [8 mg o-phenylene-diamine, Sigma cat# P-1526, 8 μl of 30% H2 O2 and 10 ml of citrate buffer (as above)] was added to each well. The reaction was allowed to develop for 15 min and then 25 μl of 4N H2 SO4 was added to each well to stop the reaction.
11. A reagent bulk was prepared by mixing 100 μl volumes of the solubilization buffer and the OPDA solution with 50 μl of 4N H2 SO4.
12. 100 μl of supernatant was removed from each of 2 wells and transferred to a flexible ELISA assay plate (Falcon). The plate was scanned spectrophotometrically at 492 nm within 30 min.

[5] = molecular target: T3, ELAM-1; test: as above; assay type: cell-based; settings: 0.47 μg/ml; Control +IL-1β 0.782
[6] = 1.87 μg/ml, Control +IL-1β 0.725
[7] = 3.75 μg/ml, Control +IL-1β 0.698
[8] = 7.5 μg/ml, Control +IL-1β 0.658

CC(=O)N[C@H]1[C@H]([C@H](O)[C@H](O)CO)O[C@@](O[C@H]2[C@@H](O)[C@@H](CO)O[C@@H](O[C@H]3[C@H](O[C@@H]4O[C@@H](C)[C@@H](O)[C@@H](O)[C@@H]4O)[C@@H](CO)OC(O)[C@@H]3NC(C)=O)[C@@H]2O)(C(=O)O)C[C@@H]1O (stereo partly drawn) [SLe^a, NeuAcα2,3Galβ1,3(Fucα1,4)GlcNAcβ1--]
recognition by selectin receptors [1]: recognized by selectin receptors

III^3 V^3 Fuc2 VI^3 NeuAcnLc6 [S-diLe^x]
inhibition of adhesion of HL-60 cells to activated platelets [2]: dramatically inhibited
inhibition of adhesion of HL-60 cells to activated endothelial cells [3]: dramatically inhibited
reduction of HL-60 cell adhesion to activated endothelial cells [3]: 70%

III^3 V^3 Fuc2 nLc6 [di-Le^x, reference compound]
inhibition of adhesion of HL-60 cells to activated platelets [2]: minimal inhibition
inhibition of adhesion of HL-60 cells to activated endothelial cells [3]: minimal inhibition
reduction of HL-60 cell adhesion to activated endothelial cells [3]: 40%

NeuAcα2,3Galβ1,4(Fucα1,3) GlcNAcβ1,3Galβ1,4Glcβ1,1Ceramide [(2,3) SLe^x]
Mean absorbance at 492 nm (bound neutrophils) [4, 6]: 0.580
Mean absorbance at 492 nm (bound neutrophils) [4, 7]: 0.483
Mean absorbance at 492 nm (bound neutrophils) [4, 8]: 0.359
Mean absorbance at 492 nm (bound neutrophils) ([4]; 15 μg/ml, Control +IL-1β 0.740): 0.270
Mean absorbance at 492 nm (bound neutrophils) ([4]; 20 μg/ml, Control +IL-1β 0.657): 0.156
inhibition of neutrophil adhesion to activated endothelium [4]: inhibit neutrophil adhesion to activated endothelium
Mean absorbance at 492 nm (bound neutrophils) [5]: 0.642

NeuAcα2,6Galβ1,4(fucα1,3)GlcNacβ1,3Galβ1,4Glcβ1,1Ceramide [(2,6) SLe^x, reference compound]
Mean absorbance at 492 nm (bound neutrophils) [4, 6]: 0.690
Mean absorbance at 492 nm (bound neutrophils) [4, 7]: 0.655
Mean absorbance at 492 nm (bound neutrophils) [4, 8]: 0.602
Mean absorbance at 492 nm (bound neutrophils) ([4]; 15 μg/ml, Control +IL-1β 0.740): 0.636
Mean absorbance at 492 nm (bound neutrophils) ([4]; 20 μg/ml, Control +IL-1β 0.657): 0.663
inhibition of neutrophil adhesion to activated endothelium [4]: not
Mean absorbance at 492 nm (bound neutrophils) [5]: 0.695
